Like-named read-outs stand apart in the source and are kept apart here.

The target in one assay is CRAF (Homo sapiens, UniProt P04049). As to the kind of experiment: CRAF kinase activity assay (ADP-Glo). The format is biochemical. As to the method:
(§1) Compound preparation: solid samples of each substances in 1 dram vials were suspended in DMSO (Fisher Scientific) at a stock concentration of 20 mM. Stocks were kept at −20° C. and protected from light.
(§2) In vitro enzymatic reactions were used for evaluating compounds intrinsic activity against BRAF, CRAF and ARAF. […] Separate reactions were performed with the MEK1 substrate and ATP as a blank control.
(§3) For compound treatment, 5 μL/well of test substance solution are placed in a 384-well proxyplate (Perkin Elmer) and mixed with 2× concentrated kinase reactions. The dilution series is selected so that nine concentrations cover a range from 100 nM to 0.01 nM. […] The final concentration of DMSO in the assay is set at 0.05%.
(§4) BRAF and CRAF kinase reactions were carried out for a total of 2 hours at 30° C. and then stopped by ½ dilution in ADP-Glo Reagent (cat #V9102; Promega; part V912C). Reactions were then incubated for 1h at room temperature before addition of one volume of Kinase Detection Reagent (cat #V9102; Promega; part V917A). Plates were then equilibrated at room temperature for 30 minutes before detection of luminescence on a Synergy Neo2 plate reader (Biotek). The effect of each compound dilution on BRAF and CRAF kinase activity was expressed as % inhibition and calculated as follows.
(§5) IC50 values were obtained by plotting the kinase inhibition values and fitting the dose-activity curves using a log(agonist) versus response-variable slope (four parameters) function using either GraphPadPrism (V7.0) or Dotmatics Screening Ultra platform.

A further assay has as its target BRAF (Homo sapiens (Human), UniProt P15056). As to the kind of experiment: BRAF kinase activity assay (ADP-Glo). Type of assay: biochemical. As to the method: as §1, §2, §3, §4, §5
The subject of assay [1] is pERK in HCT-116 cells (KRAS G13D). The assay can be described thus: Phospho-ERK inhibition (AlphaLISA SureFire Ultra p-ERK 1/2), HCT116. Type of assay: cell-based, human. The conditions noted are these: for HCT116 pERK % Ymin (lowest value of the IC50 curve): Ymin above −20% = minimal or no paradoxical activation. Summed up:
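pERK1/2 (Thr202/Tyr204) AlphaLISA, 1 h cpd, 10 conc. 10 μM→0.33 nM, 0.5% DMSO, RPMI-1640 + 5% FBS. Trametinib = 100%, DMSO = 0%. IC50, 4-param fit.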

Assay [2] concerns pERK in SW480 cells (KRAS G12D). As to the kind of experiment: Phospho-ERK inhibition (AlphaLISA), SW480. The format is cell-based, human. As to conditions: SW480 cells; for SW480 pERK Ymin %: Ymin in brackets; for IC50: class symbol before the bracket. The method, then: All cancer cell lines (A375, A101D, A2058, RKO, HT29 SK-MEL 30, IPC298, HepG2, HCT-116, Lovo, SWV620, SW480, NCI-H358, NCI-H2122, Calu-6, NCIH2087, NCIH1755, NCIH1666 and Mewo) were obtained from ATCC and cultured in RPMI-1640 medium (Gibco) supplemented with 5% heat inactivated fetal bovine serum (FBS, Wisent) at 37° C. under 5% CO2. Cells were maintained in T175 flasks (Greiner). They were passaged by removing the culture medium, washing once in 10 mL of room temperature Phosphate Buffered Saline (PBS; Wisent) and incubating at 37° C. with 2 mL of 0.05% Trypsin (Thermo-Fisher). Trypsin was then inactivated by adding complete growth medium and the cells were then replated in a T175 culture dish at the appropriate dilution. All cell lines were routinely tested for mycoplasma contamination. Tissue type and mutational status of each cell line can be found in Table B.
AlphaLISA® SureFire® Ultra™ p-ERK 1/2 (Thr202/Tyr204) analysis was conducted on cells plated in 100 μL of complete RPMI-1640 growth medium in 96-well flat-bottomed transparent dishes (Costar) at a density indicated in Table C. Cells were maintained overnight at 37° C. under 5% CO2 before treatment with compounds' dilution series for one hour. The cell density in cells/cm^2 corresponds to cell number divided by the area of one well of a 96-well plate ([…]).
In a dilution series 100 μL/well of test substance dilution prepared in complete RPMI-1640 growth media was added to the cells. The dilution series is selected so that ten concentrations cover a range from 10 μM to 0.33 nM. If necessary the initial concentration of 10 μM is increased to 100 μM or lowered to 1 μM (as in the case of A375 and H1666 cells, which are generally more sensitive to the compounds) and further dilution is carried out accordingly. The final concentration of DMSO in the assay is set at 0.5%.
After treatment, media was removed and cells were lysed in 50 μL of 1× AlphaScreen Ultra Lysis Buffer (Perkin Elmer). The AlphaLISA® SureFire® Ultra™ p-ERK 1/2 (Thr202/Tyr2O4) (PerkinElmer) reactions were performed with 5 μL of cell lysate according to the manufacturer's specifications in 384-well proxyplates (Perkin Elmer) followed by overnight incubation of the reactions at room temperature in a humidified chamber. After completion of the reactions, the signals were recorded on an EnVision plate reader (Perkin Elmer) using built in AlphaLISA® settings.
The effect of each compound dilution on the pERK signal was expressed in % inhibition and calculated as follows. An internal 100% inhibition control ([…] trametinib, cat #HY-10999; MedChem Express; CAS #871700-17-3) was included in each plate and used as a measure of pERK background. First, the value obtained for trametinib was subtracted from each data point. The average of DMSO (vehicle) controls (set as 0% inhibition) was established and used to calculate % inhibition: % inhibition=100*(1-((pERK signalcompound)/(pERK signalDMSO)))
The ability of each compound to inhibit pERK signal was expressed as an IC50 value obtained by plotting the inhibition values for each data point of a dilution series and fitting the obtained curves using a log(agonist) versus response-variable slope (four parameters) function using GraphPadPrism (V7.0) or Dotmatics Screening Ultra platform.
When present, paradoxical pERK induction is inferred from the negative % inhibition values observed in the pERK IC50 curves of a compound.

The mark [3] stands for this setting: read-out: Kinase IC50 (nM) CRAF.
The mark [4] stands for this setting: read-out: Kinase IC50 (nM) BRAF.
Setting [5] is: HCT116 cells, class symbol before the bracket.
The mark [6] stands for this setting: § symbols, read-out: Kinase IC50.
Where [7] appears, read: first kinase column (c6), * symbols, read-out: Kinase IC50.
Setting [8] is: Homo sapiens, HCT-116, HCT116 cells, class symbol.
The mark [9] stands for this setting: CRAF, read-out: Kinase IC50 (nM), CRAF biochemical kinase assay.
[10] abbreviates: BRAF, read-out: Kinase IC50 (nM), BRAF biochemical kinase assay.

Chain of CRAF (P04049 whole entry, looked up): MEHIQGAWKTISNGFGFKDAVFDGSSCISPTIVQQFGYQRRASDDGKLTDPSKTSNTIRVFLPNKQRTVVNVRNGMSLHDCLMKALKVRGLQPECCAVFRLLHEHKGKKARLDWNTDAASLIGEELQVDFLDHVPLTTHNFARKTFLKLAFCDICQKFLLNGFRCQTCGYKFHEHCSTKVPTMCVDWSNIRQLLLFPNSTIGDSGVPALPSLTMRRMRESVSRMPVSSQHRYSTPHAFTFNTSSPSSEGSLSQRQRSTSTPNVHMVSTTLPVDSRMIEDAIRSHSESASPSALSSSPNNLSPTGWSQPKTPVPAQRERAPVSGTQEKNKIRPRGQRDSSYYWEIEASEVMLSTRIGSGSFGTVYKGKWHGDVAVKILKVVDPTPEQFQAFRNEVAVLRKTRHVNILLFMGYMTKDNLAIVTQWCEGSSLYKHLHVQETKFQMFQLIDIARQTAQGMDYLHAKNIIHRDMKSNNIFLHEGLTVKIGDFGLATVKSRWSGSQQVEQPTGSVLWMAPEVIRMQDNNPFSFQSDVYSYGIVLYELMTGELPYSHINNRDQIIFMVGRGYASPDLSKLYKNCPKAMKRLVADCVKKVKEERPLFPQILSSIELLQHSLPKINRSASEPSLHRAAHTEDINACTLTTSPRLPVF
Chain of BRAF (P15056 whole entry): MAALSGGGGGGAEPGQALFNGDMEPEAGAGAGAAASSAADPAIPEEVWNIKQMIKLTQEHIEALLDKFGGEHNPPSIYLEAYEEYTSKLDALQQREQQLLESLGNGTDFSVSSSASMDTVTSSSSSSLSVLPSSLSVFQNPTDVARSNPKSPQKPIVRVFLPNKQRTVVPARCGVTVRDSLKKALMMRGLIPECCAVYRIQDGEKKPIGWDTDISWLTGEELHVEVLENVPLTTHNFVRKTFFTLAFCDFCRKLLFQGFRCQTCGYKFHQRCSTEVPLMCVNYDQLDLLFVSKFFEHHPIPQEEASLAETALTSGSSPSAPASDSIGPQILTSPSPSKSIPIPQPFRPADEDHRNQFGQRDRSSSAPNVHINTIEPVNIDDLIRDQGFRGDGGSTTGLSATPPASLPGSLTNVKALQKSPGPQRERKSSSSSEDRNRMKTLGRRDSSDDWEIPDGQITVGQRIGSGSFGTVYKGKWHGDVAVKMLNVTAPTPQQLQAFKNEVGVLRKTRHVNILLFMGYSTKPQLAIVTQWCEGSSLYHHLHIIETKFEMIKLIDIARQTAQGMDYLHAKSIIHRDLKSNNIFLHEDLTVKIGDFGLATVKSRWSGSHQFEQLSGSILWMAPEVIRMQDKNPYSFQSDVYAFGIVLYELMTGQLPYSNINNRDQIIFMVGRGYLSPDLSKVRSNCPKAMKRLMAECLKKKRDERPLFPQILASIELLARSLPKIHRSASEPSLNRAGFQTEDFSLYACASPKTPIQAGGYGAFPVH

For `O=S(=O)(Nc1ccc(F)c(Nc2ncnc3ccc(-n4cc(-c5ncc[nH]5)c5ccccc54)nc23)c1F)c1cccc(Cl)c1Cl` [Example 207], the IC50 on CRAF (setting [3]) was in the range of 10 to 50 nM; on BRAF (setting [4]), 1 to 10 nM; in assay [1] (setting [5]), 1 to 10 µM. For the same compound, in assay [1] (HCT116 cells, Ymin in brackets), the “HCT116 pERK Ymin %” value is −11%.
For `O=S(=O)(Nc1ccc(F)c(Nc2ncnc3ccc(-n4cnc5c(CN6CCC(O)CC6)cccc54)nc23)c1F)c1ccccc1Cl` [Ex 229] the same measures were 10 to 50 nM, less than 1 nM, 1 to 10 µM and −7%.
In the case of `Cc1c(F)cccc1S(=O)(=O)Nc1ccc(F)c(Nc2ncnc3ccc(-n4cnc5c(CO)cccc54)nc23)c1F` [Example 345, N-[2,4-difluoro-3-[[6-[4-(hydroxymethyl)benzimidazol-1-yl]pyrido[3,2-d]pyrimidin-4-yl]amino]phenyl]-3-fluoro-2-methyl-benzenesulfonamide], the values for the IC50 (on CRAF (setting [6]); on BRAF (setting [7]); in assay [1] (setting [8])) were less than 10 nM, 1 to 10 nM and less than 0.5 µM, respectively.
For `COC1CN(Cc2cccc3c2ncn3-c2ccc3ncnc(Nc4c(F)ccc(NS(=O)(=O)c5ccccc5Cl)c4F)c3n2)C1` [Ex 226], the IC50 at CRAF (setting [3]) was greater than 50 nM; at BRAF (setting [4]) it was 1 to 10 nM; in assay [1] (setting [5]), 1 to 10 µM. Moreover, the “HCT116 pERK Ymin %” value in assay [1] (HCT116 cells, Ymin in brackets) is recorded as −9%.
The corresponding values for `O=S(=O)(Nc1ccc(F)c(Nc2ncnc3ccc(-n4nc(-c5ncc[nH]5)c5ccccc54)nc23)c1F)c1ccccc1Cl` [Example 213] are greater than 50 nM, 1 to 10 nM, 1 to 10 µM and −8%.
For `Cc1c(Cl)cccc1S(=O)(=O)Nc1ccc(F)c(Nc2ncnc3ccc(-n4cnc5c(O)cccc54)nc23)c1F` [Example 116] the same measures were less than 10 nM, less than 1 nM, 0.5 to 1 µM and −18%.
As for `Cc1c(F)cccc1S(=O)(=O)Nc1ccc(F)c(Nc2ncnc3ccc(-n4cnc(/C=C/C#N)c4)nc23)c1F` [Example 343, (E)-N-(3-((6-(4-(2-cyanovinyl)-1H-imidazol-1-yl)pyrido[3,2-d]pyrimidin-4-yl)amino)-2,4-difluorophenyl)-3-fluoro-2-methylbenzenesulfonamide], the IC50 at CRAF (setting [6]) was 10 to 50 nM; on BRAF (setting [7]), 1 to 10 nM; in assay [1] (setting [8]) it was less than 0.5 µM.
As to `O=S(=O)(Nc1ccc(F)c(Nc2ncnc3ccc(-n4cnc5c(C6CCN(CCO)CC6)cccc54)nc23)c1F)c1cccc(Cl)c1Cl` [Example 681], the half-inhibitory concentration (IC50) at CRAF (setting [9]) was less than 10 nM; on BRAF (setting [10]), less than 1 nM; in assay [1] (HCT116 cells), less than 0.5 µM. Besides, the “HCT116 pERK % Ymin (lowest value of the IC50 curve)” value (from here on “HCT116 pERK % Ymin”) in assay [1] (HCT116 cells) is reported as −9%.
Regarding `COc1ccc(S(=O)(=O)Nc2ccc(F)c(Nc3ncnc4ccc(-n5cnc6ccccc65)nc34)c2Cl)cc1` [Example 239], the IC50 is greater than 50 nM on CRAF (Table 5, read-out: Kinase IC50 (nM) CRAF); greater than 10 nM on BRAF (Table 5, read-out: Kinase IC50 (nM) BRAF); 1 to 10 µM in assay [1] (HCT116 cells, Table 5). Further, the “HCT116 pERK Ymin %” value in assay [1] (lowest value of the curve, HCT116, Table 5) worked out at 6.7%.
In the case of `CN1CCN(c2ncc(-c3ccc4ncnc(Nc5c(F)ccc(NS(=O)(=O)c6cccc(Cl)c6Cl)c5F)c4n3)s2)CC1` [Example 613], the values for the IC50 (at CRAF (setting [9]); at BRAF (setting [10]); in assay [1] (HCT116 cells)) were 10 to 50 nM, 1 to 10 nM and 0.5 to 1 µM, respectively. Also, the “HCT116 pERK % Ymin” value in assay [1] (HCT116 cells) is reported as −3%.
The corresponding values for `O=S(=O)(Nc1ccc(F)c(Nc2ncnc3ccc(-c4cnc5n4CCCC5)nc23)c1F)c1cccc(Cl)c1Cl` [Example 561] are less than 10 nM, 1 to 10 nM, less than 0.5 µM and −13%.
In the case of `CC(=O)Nc1cccc2c1ncn2-c1ccc2ncnc(Nc3c(F)ccc(NS(=O)(=O)c4ccccc4Cl)c3F)c2n1` [Example 85], the IC50 on CRAF (setting [3]) lay within 10 to 50 nM; at BRAF (setting [4]), 1 to 10 nM; in assay [1] (setting [5]), 0.5 to 1 µM. Moreover, in assay [1] (HCT116 cells, Ymin in brackets), the “HCT116 pERK Ymin %” value stood at 2.9%.
As for `O=S1(=O)CCN(c2cccc3c2ncn3-c2ccc3ncnc(Nc4c(F)ccc(NS(=O)(=O)c5cccc(Cl)c5Cl)c4F)c3n2)CC1` [Example 628], the IC50 at CRAF (setting [9]) is less than 10 nM. In addition, in assay [1] (HCT116 cells), the IC50 was 0.5 to 1 µM and the “HCT116 pERK % Ymin” value came to 0%.
Regarding `COc1ccc(S(=O)(=O)Nc2ccc(F)c(Nc3ncnc4ccc(-c5cncnc5)nc34)c2F)c(C)c1` [Ex 56], in assay [2], the “SW480 pERK Ymin %” value was determined as 7% and the half-inhibitory concentration (IC50) fell in the range of 0.5 to 1 µM. In assay [1] (HCT116 cells, Ymin in brackets), the “HCT116 pERK Ymin %” value is reported as −9%. Also, in assay [1] (setting [5]), the half-inhibitory concentration (IC50) lay within 1 to 10 µM.
The corresponding values for `COc1ccc(S(=O)(=O)Nc2ccc(F)c(Nc3ncnc4ccc(-c5cccc(O)c5)nc34)c2F)c(C)c1` [Ex 72] are −7%, 1 to 10 µM, 1% and 1 to 10 µM.
The corresponding values for `Cc1c([N+](=O)[O-])ncn1-c1ccc2ncnc(Nc3c(F)ccc(NS(=O)(=O)c4ccccc4Cl)c3F)c2n1` [Ex 82] are 2%, 1 to 10 µM, −5% and 1 to 10 µM.
For `COc1ccc(S(=O)(=O)Nc2ccc(F)c(Nc3ncnc4ccc(-c5ccsc5)nc34)c2F)c(C)c1` [Ex 58] the same measures were 2%, 1 to 10 µM, −1% and 10 to 30 µM.
Turning to `COc1ccc(S(=O)(=O)Nc2ccc(F)c(Nc3ncnc4ccc(-n5cnc(C)c5C)nc34)c2F)cc1` [Ex 32], the “SW480 pERK Ymin %” value in assay [2] is given as 2%. Besides, the IC50 in assay [2] and in assay [1] (setting [5]) was 1 to 10 µM each time. For the same compound, the “HCT116 pERK Ymin %” value in assay [1] (HCT116 cells, Ymin in brackets) was 17%.

These data come from US12139488B2, “Pyrido[3,2-d]pyrimidine compounds uses thereof for treating a proliferative disease” (Universite de Montreal, priority 2021, dated 2024).
